The target in the experiment is T1, hNOD2 (Homo sapiens, UniProt Q9HC29).
T1 construct: host or cells: HEK-Blue NOD2 cells (HEK293)
The experiment in a line: HEK-Blue NOD2 cell line reporter assay (NF-κB-inducible SEAP). It counts as cell-based. How it is done: To assess the NOD2 agonistic potential of the synthesized desmuramylpeptides at a cellular level, we employed the HEK-Blue NOD2 cell line reporter assay, a validated and commercially available method. All synthesized compounds were evaluated for their dose-dependent activities to establish their EC50 values.
The HEK-Blue NOD1 and NOD2 cell line reporter assay was generated from HEK293 cells through cotransfection of the hNOD1 or hNOD2 gene, respectively, along with an NF-κB-inducible secreted embryonic alkaline phosphatase (SEAP) reporter gene. Upon activation of NOD1 or NOD2, NF-κB triggers the production of SEAP, which can be quantitatively measured colorimetrically. […] After 18 h of incubation at 37 °C with 5% CO2, SEAP activity was measured spectrophotometrically by absorbance at 630 nm (BioTek Synergy microplate reader; Winooski, VT, USA). EC50 values were determined using Prism software (version 9; GraphPad Software, CA, USA). Each experiment was conducted in duplicate and repeated in at least two independent biological replicates.

The mark [1] stands for this setting: HEK-Blue NOD2 cells, 18 h, NF-κB transcriptional activity (SEAP), read-out: EC50 (nM), NOD2 agonistic activity.

Like-named read-outs stand apart in the source and are kept apart here. Bounds are passed on as bounds.

T1 sequence (Q9HC29 whole entry): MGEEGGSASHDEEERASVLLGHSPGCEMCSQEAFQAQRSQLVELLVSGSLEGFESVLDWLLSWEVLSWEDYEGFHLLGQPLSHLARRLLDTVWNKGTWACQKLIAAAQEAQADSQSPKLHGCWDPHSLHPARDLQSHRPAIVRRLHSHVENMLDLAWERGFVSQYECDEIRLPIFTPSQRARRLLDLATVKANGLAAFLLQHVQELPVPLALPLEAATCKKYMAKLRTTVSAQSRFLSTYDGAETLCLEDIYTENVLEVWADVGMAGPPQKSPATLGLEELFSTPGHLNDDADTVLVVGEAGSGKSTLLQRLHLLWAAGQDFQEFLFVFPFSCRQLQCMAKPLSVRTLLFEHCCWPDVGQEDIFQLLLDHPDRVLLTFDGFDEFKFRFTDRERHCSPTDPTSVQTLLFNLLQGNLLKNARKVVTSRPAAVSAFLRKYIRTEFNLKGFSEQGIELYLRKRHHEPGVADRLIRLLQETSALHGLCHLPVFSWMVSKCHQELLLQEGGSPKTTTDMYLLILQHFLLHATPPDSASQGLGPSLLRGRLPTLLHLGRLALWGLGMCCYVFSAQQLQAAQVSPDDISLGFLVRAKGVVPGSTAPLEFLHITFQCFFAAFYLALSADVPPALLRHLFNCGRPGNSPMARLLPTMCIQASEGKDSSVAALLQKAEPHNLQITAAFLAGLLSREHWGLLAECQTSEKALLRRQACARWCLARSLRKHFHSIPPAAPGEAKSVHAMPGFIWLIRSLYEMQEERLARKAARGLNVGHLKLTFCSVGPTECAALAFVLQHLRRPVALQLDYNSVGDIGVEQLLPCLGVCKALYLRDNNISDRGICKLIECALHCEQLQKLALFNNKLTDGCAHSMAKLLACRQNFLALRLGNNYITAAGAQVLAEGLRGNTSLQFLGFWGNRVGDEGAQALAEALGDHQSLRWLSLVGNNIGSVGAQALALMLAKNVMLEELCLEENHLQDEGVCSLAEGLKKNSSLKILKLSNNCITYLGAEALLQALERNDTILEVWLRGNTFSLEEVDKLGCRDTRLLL

Take `CCCCCC(=O)Oc1ccc(/C=C/C(=O)NCC(=O)N[C@H](C(=O)N[C@H](CCC(=O)OCC)C(=O)OCC)C(C)C)cc1OC` [Compound 4, Diethyl ((E)-3-(4-(Hexanoyloxy)-3-methoxyphenyl)acryloyl)glycyl-L-valyl-D-glutamate]: the EC50 under setting [1] was found to be 20.2 ± 1.2 nM.

Consider `CC/C=C\C/C=C\C/C=C\C/C=C\C/C=C\C/C=C\CCC(=O)Oc1ccc(/C=C/C(=O)NCC(=O)N[C@H](C(=O)N[C@H](CCC(=O)OCC)C(=O)OCC)C(C)C)cc1OC` [Compound 22, Diethyl ((E)-3-(4-(((4Z,7Z,10Z,13Z,16Z,19Z)-Docosa-4,7,10,13,16,19-hexaenoyl)oxy)-3-methoxyphenyl)acryloyl)glycyl-L-valyl-D-glutamate], for which the EC50 under setting [1] turned out to be 200 ± 50.8 nM. Still for that read-out and setting: with `CCCCCC(CCC)C(=O)Oc1ccc(/C=C/C(=O)NCC(=O)N[C@H](C(=O)N[C@H](CCC(=O)OCC)C(=O)OCC)C(C)C)cc1OC` (stereo partly drawn) [Compound 14, Diethyl ((E)-3-(3-Methoxy-4-((2-propylheptanoyl)oxy)phenyl)acryloyl)glycyl-L-valyl-D-glutamate] the figure was 19.4 ± 3.6 nM; with `CCCCCC(C)C(=O)Oc1ccc(/C=C/C(=O)NCC(=O)N[C@H](C(=O)N[C@H](CCC(=O)OCC)C(=O)OCC)C(C)C)cc1OC` (stereo partly drawn) [Compound 11, Diethyl ((E)-3-(3-Methoxy-4-((2-methylheptanoyl)oxy)phenyl)acryloyl)glycyl-L-valyl-D-glutamate], 11.7 ± 2.8 nM. `CCOC(=O)[C@@H](CCC(=O)NCCCNCCCCN)NC(=O)[C@@H](NC(=O)CNC(=O)/C=C/c1ccc(O)c(OC)c1)C(C)C` [Compound 34, Ethyl N^5-(3-((4-Aminobutyl)amino)propyl)-N^2-((E)-3-(4-hydroxy-3-methoxyphenyl)acryloyl)glycyl-L-valyl-D-glutaminate]: the EC50 under setting [1] was over 10000 nM. Regarding `CCCCCC(CCCCC)C(=O)Oc1ccc(/C=C/C(=O)NCC(=O)N[C@H](C(=O)N[C@H](CCC(=O)OCC)C(=O)OCC)C(C)C)cc1OC` [Compound 17, Diethyl ((E)-3-(3-Methoxy-4-((2-pentylheptanoyl)oxy)phenyl)acryloyl)glycyl-L-valyl-D-glutamate], the “drop of activity compared to 2” value (EC50 ratio versus 2 (lauroyl)) is 9 factor. Also, under setting [1], the EC50 came out at 88.6 ± 10.5 nM.

With `CCCCC(CC)C(=O)Oc1ccc(/C=C/C(=O)NCC(=O)N[C@H](C(=O)N[C@H](CCC(=O)OCC)C(=O)OCC)C(C)C)cc1OC` (stereo partly drawn) [Compound 12, Diethyl ((E)-3-(4-((2-ethylhexanoyl)oxy)-3-methoxyphenyl)acryloyl)glycyl-L-valyl-D-glutamate], the EC50 under setting [1] amounted to 21.6 ± 6.5 nM. Regarding `CCCCCCCC(=O)Oc1ccc(/C=C/C(=O)NCC(=O)N[C@H](C(=O)N[C@H](CCC(=O)OCC)C(=O)OCC)C(C)C)cc1OC` [Compound 5, Diethyl ((E)-3-(3-Methoxy-4-(octanoyloxy)phenyl)acryloyl)glycyl-L-valyl-D-glutamate], the concentration giving a half-maximal response (EC50) under setting [1] worked out at 25.5 ± 2.2 nM. For `CCCCCCC(CC)C(=O)Oc1ccc(/C=C/C(=O)NCC(=O)N[C@H](C(=O)N[C@H](CCC(=O)OCC)C(=O)OCC)C(C)C)cc1OC` (stereo partly drawn) [Compound 13, Diethyl ((E)-3-(4-((2-Ethyloctanoyl)oxy)-3-methoxyphenyl)acryloyl)glycyl-L-valyl-D-glutamate], the concentration for a half-maximal effect (EC50) runs as follows: under setting [1], 9.7 nM; (supplementary SMILES csv, read-out: HEK-blue hNOD2 EC50) 9.7 nM. As for `CCCCC/C=C\C/C=C\CCCCCCCC(=O)Oc1ccc(/C=C/C(=O)NCC(=O)N[C@H](C(=O)N[C@H](CCC(=O)OCC)C(=O)OCC)C(C)C)cc1OC` [Compound 19, Diethyl ((E)-3-(3-Methoxy-4-(((9Z,12Z)-octadeca-9,12-dienoyl)oxy)phenyl)acryloyl)glycyl-L-valyl-D-glutamate], under setting [1], the EC50 came to 198 ± 39.1 nM.

For `CCCCCCCCC(=O)Oc1ccc(/C=C/C(=O)NCC(=O)N[C@H](C(=O)N[C@H](CCC(=O)OCC)C(=O)OCC)C(C)C)cc1OC` [Compound 6], the EC50 under setting [1] came to 24.8 ± 2.3 nM. Same read-out and setting: for `CCCCC(CCCC)C(=O)Oc1ccc(/C=C/C(=O)NCC(=O)N[C@H](C(=O)N[C@H](CCC(=O)OCC)C(=O)OCC)C(C)C)cc1OC` [Compound 15, Diethyl ((E)-3-(4-((2-Butylhexanoyl)oxy)-3-methoxyphenyl)acryloyl)glycyl-L-valyl-D-glutamate] the value was 22.4 ± 5.9 nM.

With `CCCCCCCCCCCCCCCCCC(=O)Oc1ccc(/C=C/C(=O)NCC(=O)N[C@H](C(=O)N[C@H](CCC(=O)OCC)C(=O)OCC)C(C)C)cc1OC` [Compound 10], the concentration giving a half-maximal response (EC50) under setting [1] was determined as 7200 ± 2640 nM and the EC50 (HEK-Blue NOD2 cells, 18 h, read-out: EC50, NOD2 agonistic activity (text)) was determined as 7200 nM. For the compound `CCCCCCCCCCCCCC(=O)Oc1ccc(/C=C/C(=O)NCC(=O)N[C@H](C(=O)N[C@H](CCC(=O)OCC)C(=O)OCC)C(C)C)cc1OC` [Compound 8, Diethyl ((E)-3-(3-Methoxy-4-(tetradecanoyloxy)phenyl)acryloyl)glycyl-L-valyl-D-glutamate], the 50% effective concentration (EC50) under setting [1] stood at 69.5 ± 5.1 nM.

In the case of `CCCCC/C=C\C/C=C\C/C=C\CCCCC(=O)Oc1ccc(/C=C/C(=O)NCC(=O)N[C@H](C(=O)N[C@H](CCC(=O)OCC)C(=O)OCC)C(C)C)cc1OC` [Compound 21, Diethyl ((E)-3-(3-Methoxy-4-(((6Z,9Z,12Z)-octadeca-6,9,12-trienoyl)oxy)phenyl)acryloyl)glycyl-L-valyl-D-glutamate], the EC50 under setting [1] is 205 ± 28.6 nM. Regarding `CCCCCCCCCC(=O)Oc1ccc(/C=C/C(=O)NCC(=O)N[C@H](C(=O)N[C@H](CCC(=O)OCC)C(=O)OCC)C(C)C)cc1OC` [Compound 7, Diethyl ((E)-3-(4-(Decanoyloxy)-3-methoxyphenyl)acryloyl)glycyl-L-valyl-D-glutamate], the EC50 under setting [1] was 30.6 ± 5.5 nM. Same read-out and setting: for `CCOC(=O)[C@@H](CCC(=O)NCCCCN)NC(=O)[C@@H](NC(=O)CNC(=O)/C=C/c1ccc(O)c(OC)c1)C(C)C` [Compound 30, Ethyl N^5-(4-Aminobutyl)-N^2-((E)-3-(4-hydroxy-3-methoxyphenyl)acryloyl)glycyl-L-valyl-D-glutaminate] the value was over 10000 nM; for `CCOC(=O)CC[C@@H](NC(=O)[C@@H](NC(=O)CNC(=O)/C=C/c1ccc(OC(=O)CCCC2CCCCC2)c(OC)c1)C(C)C)C(=O)OCC` [Compound 16, Diethyl ((E)-3-(4-((4-Cyclohexylbutanoyl)oxy)-3-methoxyphenyl)acryloyl)glycyl-L-valyl-D-glutamate], 25.8 ± 3.3 nM. For the compound `CCCCCCCC/C=C\CCCCCCCC(=O)Oc1ccc(/C=C/C(=O)NCC(=O)N[C@H](C(=O)N[C@H](CCC(=O)OCC)C(=O)OCC)C(C)C)cc1OC` [Compound 18, Diethyl ((E)-3-(3-Methoxy-4-(oleoyloxy)phenyl)acryloyl)glycyl-L-valyl-D-glutamate], the “increase in potency compared to saturated counterpart 10” value (EC50 ratio versus 10 (stearoyl)) was determined as 17 fold. In addition, under setting [1], the EC50 came out at 422 ± 120 nM. As for `CC/C=C\C/C=C\C/C=C\CCCCCCCC(=O)Oc1ccc(/C=C/C(=O)NCC(=O)N[C@H](C(=O)N[C@H](CCC(=O)OCC)C(=O)OCC)C(C)C)cc1OC` [Compound 20, Diethyl ((E)-3-(3-Methoxy-4-(((9Z,12Z,15Z)-octadeca-9,12,15-trienoyl)oxy)phenyl)acryloyl)glycyl-L-valyl-D-glutamate], under setting [1], the EC50 turned out to be 135 ± 28.9 nM. As to `CCOC(=O)CC[C@@H](NC(=O)[C@@H](NC(=O)CNC(=O)/C=C/c1ccc(OC(=O)CCCCCCCCCCCCCO)c(OC)c1)C(C)C)C(=O)OCC` [Compound 24, Diethyl ((E)-3-(4-((14-Hydroxytetradecanoyl)oxy)-3-methoxyphenyl)acryloyl)glycyl-L-valyl-D-glutamate], under “EC50 ratio versus unsubstituted myristoylated 8”, the “boost of NOD2 agonistic activity compared to 8” value amounted to 6 fold. For the same compound, the EC50 under setting [1] was 12.3 ± 1.5 nM.

The record behind these values is paper PMC11472310, “Distinctive Immune Signatures Driven by Structural Alterations in Desmuramylpeptide NOD2 Agonists” (Journal of Medicinal Chemistry, 2024).
